Assays:
[1] = system: U87 shCTRL cells; experiment: Mitochondria network analysis (citrate synthase immunofluorescence), U87 shCTRL; assay type: cell-based, human; details: 5 µM, 24 h (Figure 4 legend: 48 h)
Procedure: For indirect immunofluorescence of mitochondria, 10^4 cells were plated on cover glass and incubated for 24 h with compounds. Cells were then fixed in 4% formaldehyde (in PBS pH 7.4) for 20 min at RT, permeabilized with PBS-Triton X-100 0.5% for 10 min at RT. Immunostaining was carried out overnight at 4 °C with a primary anti-citrate synthase antibody (dilution 1:400 in PBS-BSA 3%; SC390693; SantaCruz Biotechnologies, Heidelberg, Germany). The following day, the cells were washed then incubated with anti-mouse secondary antibody (dilution 1:800 in PBS-BSA 3%; A-11029; Invitrogen) and TRITC-phalloidin (dilution 1:2500 in PBS-BSA 3%; P1951; Sigma-Aldrich, Saint-Quentin-Fallavier, France) for 1 h at RT in the dark. For the microtubule network, the same protocol for mitochondria labeling was carried out by replacing with primary anti-α-tubulin antibody (dilution 1:400 in PBS-BSA 1% from a 1 mg/mL solution; monoclonal antibody, clone DM1A, Sigma-Aldrich, Saint-Quentin-Fallavier, France). Next, cells were washed in PBS and cover glasses were mounted with a drop of ProLong® anti-fade solution (Invitrogen). Mitochondria and cytoskeletons were imaged using a confocal laser scanning microscope (CLSM) Leica SP5 with a Leica inverted microscope, equipped with a Plan-Apochromat 63×oil immersion objective (NA = 1.4). Each image was recorded with the CLSM’s spectral mode selecting specific domains of the emission spectrum. The Alexafluor488 and FITC fluorophores were excited at 488 nm with an argon laser, and fluorescence emission was collected between 496 nm and 535 nm. The TRITC fluorophore was excited at 543 nm with a helium–neon laser, and fluorescence was collected between 560 and 620 nm. The public-domain Fiji v1.54f software was used for image analysis.
The analyses of mitochondria and microtubule networks were performed using, respectively, the ‘Mitochondria analyzer’ plugin for Fiji v1.54f software and the method described in our earlier work. Briefly, a series of images were transferred to the software and corrected for background fluorescence intensity contribution. Next, the surface of 50 single cells was measured by considering the cell shape as the boundary of labelling of actin or α-tubulin cytoskeletons (respectively for measurement on mitochondria or microtubules). Then, the mitochondria elongation and mean branch junction per mitochondria parameters, and the surface of the microtubule network, were measured by performing systematically the Otsu method to reduce all gray-level images to binary images. […] Moreover, the ratios of microtubules on cell surfaces were calculated as percentages.

[2] = system: T98G glioblastoma cells; experiment: MTT cell viability assay, T98G; assay type: cell-based; details: Homo sapiens, 72 h, mean ± SEM, read-out: IC50 (metabolic activity)
Procedure: (§1) Cells harvested from sub-confluent monolayers were seeded at 15,000 cells per mL in a 96-well microtiter plate (Cambridge Technology, Labège, France) and cultured for 24 h under standard conditions. Standard medium was then replaced by fresh medium containing no drugs or compounds at different concentrations. The surviving cells were quantified after 72 h by the MTT assay, according to the manufacturer’s instructions. Briefly, 20 µL of 3-(4,5-diMethylThiazol-2-yl)-2,5diphenyl Tetrazolium bromide (MTT) solution at 5 mg.mL^−1 was added to cells for 3 h at 37 °C. The supernatant was discarded and replaced by 100 µL of dimethyl sulfoxide to dissolve formazan crystals. The absorbance was then read at 600 nm by spectrophotometry. For all concentrations of a given compound, cell viability was expressed as the percentage of the ratio between the mean absorbance of treated cells and the mean absorbance of untreated cells. Three independent experiments were performed, and the data were expressed as percentage of survival (using the untreated cells as 100%) and subjected to statistical analysis (n = 3). The IC50 was calculated using the Chou and Talalay method.

[3] = system: SK-N-SH neuroblastoma cells; experiment: MTT cell viability assay, SK-N-SH; assay type: cell-based; details: Homo sapiens, 72 h, mean ± SEM, read-out: IC50 (metabolic activity)
Procedure: as §1

[4] = system: U87 glioblastoma cells; experiment: MTT cell viability assay, U87; assay type: cell-based, human; details: for IC50: Homo sapiens, U87, 72 h, MTT, mean ± SEM, read-out: IC50 (metabolic activity)
Procedure: as §1

[5] = system: U87 shTau cells; experiment: Cell cycle by flow cytometry (propidium iodide), U87 shTau; assay type: cell-based, human; details: 48 h
Procedure: Measurements of cell cycle from DNA content were performed by flow cytometry as described before. Briefly, 4.10^5 cells in exponential growth were seeded in 6-well plates. After 24 h, they were treated with 10 µM of compounds for 48 h. Nocodazole was used as a positive control with a concentration of 1 µM. The trypsinized cells were harvested and then centrifuged (1200 rpm, 5 min, at room temperature). The cell pellet was resuspended in 1 mL of PBS 1× at 4 °C, and then an extra 4 mL of cold PBS was added to wash the pellet. Cells were then centrifuged again (1200 rpm, 5 min, at 4 °C). To fixate the cells, the pellet was resuspended in 100 µL of cold 70% ethanol, then an additional 900 µL was added and cells were incubated for 30 min at −20 °C. After that, 9 mL of cold PBS was added, and cells were centrifuged (2000 rpm, 5 min, at 4 °C) to remove ethanol. The cell pellet was then resuspended in the staining mix containing 50 µg.mL^−1 of propidium iodide (Molecular Probes, Paris, France) and 100 µg.mL^−1 of RNAse A (Sigma-Aldrich, Saint-Quentin-Fallavier, France) in PBS for 20 min at room temperature in darkness. Samples were analyzed on a Beckman–Coulter–Gallios flow cytometer using the Kaluza for Gallios Acquisition v1.0 software. Propidium iodide was excited at 488 nm, and fluorescence was analyzed at 620 nm on channel FL-3. For the analysis, there is considerable overlap between early S phase and G1 and between late S phase and G2/M due to broadening of the distribution caused by variability in the staining of the cells and instrumental variability. Therefore, the percentages of cells in the sub-G1, G1, S, and G2/M phases of the cell cycle were calculated using the Watson et al. algorithm for cell cycle analysis in Kaluza for Gallios Analysis v2.1 software. The software automatically adjusted gates based on PI median fluorescence intensity of the cells and their frequency among total cells. The number of cells in each phase was divided by the total number of analyzed cells, and the values were reported as percentage of the total cells for each cell cycle phase.

Nc1nc2ccc3oc(-c4cccc(Oc5ccccc5)c4)cc(=O)c3c2s1 [Compound 2, 2-amino-7-(3-phenoxyphenyl)-9H-chromeno [6,5-d]thiazol-9-one]
change in elongation index of mitochondria [1]: −12.5%
reduction in the number of branch junctions per mitochondria [1]: 1.8 fold
IC50 [2]: 2.8 ± 2.4 µM
IC50 [3]: 1.2 ± 0.3 µM
IC50 [4]: 1.9 ± 0.7 µM
IC50 value fold lower than 1 ([4]; U87 cell line): up to 10 fold
effect on cell cycle progression ([5]; 10 µM): no significant effect on cell cycle progression

Nc1nc2ccc3oc(C(=O)O)cc(=O)c3c2s1 [Compound 5]
change in elongation index of mitochondria [1]: No effect
reduction in the number of branch junctions per mitochondria [1]: No effect
IC50 [2]: > 100 µM
IC50 [3]: > 100 µM
IC50 [4]: > 100 µM
%G1 (cells in G1 phase) ([5]; compounds 10 µM, NOC 1 µM): 62 ± 5%
%G2/M (cells in G2/M phase) ([5]; compounds 10 µM, NOC 1 µM): 25 ± 1%
